Consider two compounds from patent publication US20080187492A1, “Drosophila Models For Diseases Affecting Learning and Memory” (priority 2004, published 2008).

Experiment [1] has as its system Drosophila expressing mutant huntington protein in the MBs. Description: Naive courtship and short-term memory in Drosophila expressing mutant huntington in the MBs. The experiment is classed as in vivo. As to conditions: 5 day old flies; p<0.05. An excerpt:
Both HDAC inhibition and CBP overexpression should in theory promote an increase CREB mediated gene transcription. […] Since we knew that we could use a PDE-4 inhibitor or mGluR antagonists or lithium to increase cAMP levels thereby promoting CREB mediated transcription, we decided to see if these compounds could restore the memory deficit in Drosophila expressing mutant huntington in the MBs.

The subject of experiment [2] is flies heterozygous for the Drosophila presenilin gene. Description: Short term memory in presenilin mutant Drosophila model of Alzheimer's disease. The experiment is classed as in vivo. As to conditions: 30 days of age; data not shown. An excerpt:
We have also discovered that there is a deficit in long term memory in these flies as young adults, and there is also an age dependent deficit in these flies in short term memory at 30 days of age (data not shown). This age dependent deficit in short term memory is rescued by treatment with LY341495. Additionally, this age dependent deficit is rescued by lowering IP3R expression by making these presenilin mutant lines heterozygous for an IP3R deletion (data not shown).

For experiment [3] the test system is unchanged. Briefly: Learning during training in Drosophila model of Alzheimer's disease with reduced presenilin. The experiment is classed as in vivo. More on the design: age dependent impairment in learning during training: dose or concentration left out as unconfirmed. From the text: FIG. 10 is a graph showing the effect of MPEP on learning during training in a Drosophila model of Alzheimer's disease expressing reduced amounts of presenilin. All flies have reduced presenilin level. Black bars are 5 day old flies raised on kept on control food (N=18) which display learning during training (p<0.05). […] This impairment is prevented by treatment with MPEP.
Using methods similar to those described in Examples 1 and 2, we evaluated the effect of MPEP on various aspects of learning and memory in a Drosophila model of Alzheimer's disease with reduced expression of presenilin.
Flies in all three groups are heterozygous for the Drosophila presenilin gene. Each group has one wild type presenilin gene and one null presenilin gene, resulting from a deletion at the presenilin locus or a mutation at the presenilin locus. Learning during training was assayed in flies kept on control food until tested at five days of age, kept on control food until tested at 30 days of age or kept on control food for the first five days after eclosion then switched to food containing 200 μg/ml of MPEP until being moved back to control food the day before being tested at 30 days of age. […] This age-dependent deficit in learning during training is apparent in ten mutant presenilin Drosophila lines evaluated. In flies treated with MPEP, learning during training was restored at 30 days of age (p<0.05).

Experiment [4] deals with FS (dFMR1-3+frame shifted rescue fragment) flies. Description: Conditioned courtship: learning during training, FS flies. It is filed as in vivo, Drosophila melanogaster. As to conditions: MPEP 200 μg/ml in development, adulthood or both. From the text: The role of dFMR1 in learning during training and immediate recall. The flies used were w1118 (the background stock from which the mutation was derived), dFMR1-3 (the mutation lacking dFMR1 expression), Rescue (dFMR1-3+wild type rescue fragment) and FS (frame shift, dFMR1-3+frame shifted rescue fragment) all from Dockendorff et al, 2002. To assess learning during training male flies are placed in a training chamber with a previously mated female for one hour. The amount of time the male spent courting in the initial ten-minute interval was compared to the amount of time the male spent courting the female target in the final ten-minute interval (FIG. 1). […] It is important to note that the level of courtship behavior towards the previously mated female is similar between the two mutant groups and the w1118 and Rescue groups. […] This is important to note, because without actively courting, the male fly cannot be trained (Tompkins et al. 1982; 1983).
Learning during training. In order to assess learning during training, the male flies were placed in a training chamber with a previously mated female for one hour. The amount of time the male spent courting in the first ten-minute interval was compared to the amount of time the male spent courting the female target in the last ten-minute interval (FIG. 4A).
Behavioral Training and Testing. […]

For `N[C@](CC1c2ccccc2Oc2ccccc21)(C(=O)O)[C@H]1C[C@@H]1C(=O)O` [LY341495, (2S)-2-amino-2-[(1S,2S)-2-carboxycycloprop-1-yl]-3-(xanth-9-yl) propionic acid], in experiment [1], the short-term memory entry is “restored short-term memory”. The “age dependent deficit in short term memory” value in experiment [2] is reported as “rescued”.

For the compound `Cc1cccc(C#Cc2ccccc2)n1` [MPEP, 2-methyl-6-(phenylethynyl)pyridine], the “age dependent impairment in learning during training” value in experiment [3] (30 day old, food supplemented MPEP from day 5) is recorded as “prevented”. Moreover, the learning during training entry in experiment [3] (30 days of age, food containing 200 μg/ml of MPEP from day 5, p<0.05) is “restored”; in experiment [4] (20-day-old), “able to restore learning during training”; in experiment [4] (5 day old), “does not adversely affect learning during training”.
